Several values for one entry are separate records, joined by “and”; a condition that tells them apart may be missing. Equal entries are not always repeated.
Test system: 922993-354-T-J3-PDC complex spheroids, viability, % test/control
Assay: Anticancer human tumor 922993-354-T-J3-PDC patient-derived endometrial carcinoma cell line growth inhibition [CLK]
Details: for viability, T/C: stronger effect = lower value; active = viability on the fitted dose curve at most 10% of control; inactive = the rest
Method in brief: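 Multi-cell-type spheroids combined patient-derived tumor cells with HUVEC endothelial cells and human mesenchymal stem cells. Paired agents were dosed in half-log steps down from about clinical Cmax, or from 10 microM where Cmax was unknown.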

[1] = curve of first compound, second compound 0.0316 µM
[2] = curve of first compound, second compound 0.1 µM
[3] = curve of first compound, second compound 0.316 µM
[4] = curve of first compound, second compound 1 µM
[5] = curve of first compound, second compound 3.16 µM
[6] = curve of first compound, second compound 10 µM
[7] = second compound 0.0316 µM, first compound 0.0316 µM
[8] = second compound 0.0316 µM, first compound 0.1 µM
[9] = second compound 0.0316 µM, first compound 0.316 µM
[10] = second compound 0.0316 µM, first compound 1 µM
[11] = second compound 0.0316 µM, first compound 3.16 µM
[12] = second compound 0.0316 µM, first compound 10 µM
[13] = second compound 0.1 µM, first compound 0.0316 µM
[14] = second compound 0.1 µM, first compound 0.1 µM
[15] = second compound 0.1 µM, first compound 0.316 µM
[16] = second compound 0.1 µM, first compound 1 µM
[17] = second compound 0.1 µM, first compound 3.16 µM
[18] = second compound 0.1 µM, first compound 10 µM
[19] = second compound 0.316 µM, first compound 0.0316 µM
[20] = second compound 0.316 µM, first compound 0.1 µM
[21] = second compound 0.316 µM, first compound 0.316 µM
[22] = second compound 0.316 µM, first compound 1 µM
[23] = second compound 0.316 µM, first compound 3.16 µM
[24] = second compound 0.316 µM, first compound 10 µM
[25] = second compound 1 µM, first compound 0.0316 µM
[26] = second compound 1 µM, first compound 0.1 µM
[27] = second compound 1 µM, first compound 0.316 µM
[28] = second compound 1 µM, first compound 1 µM
[29] = second compound 1 µM, first compound 3.16 µM
[30] = second compound 1 µM, first compound 10 µM
[31] = second compound 3.16 µM, first compound 0.0316 µM
[32] = second compound 3.16 µM, first compound 0.1 µM
[33] = second compound 3.16 µM, first compound 0.316 µM
[34] = second compound 3.16 µM, first compound 1 µM
[35] = second compound 3.16 µM, first compound 3.16 µM
[36] = second compound 3.16 µM, first compound 10 µM
[37] = second compound 10 µM, first compound 0.0316 µM
[38] = second compound 10 µM, first compound 0.1 µM
[39] = second compound 10 µM, first compound 0.316 µM
[40] = second compound 10 µM, first compound 1 µM
[41] = second compound 10 µM, first compound 3.16 µM
[42] = second compound 10 µM, first compound 10 µM
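Note: spheroids exposed to the agents for 7 days before readout.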

COc1ccc([C@@H](O)c2cc(-c3ncnc4cc(N5CCOCC5)ccc34)c(F)cc2Cl)nn1 + CN1CCN(c2cc(C(=O)Nc3cc4cc(-c5cnn(C)c5)ccc4cn3)ccn2)CC1
< 31.6 nM: IC50 [3] | IC50 [4] | IC50 [5] | IC50 [6]
> 10000 nM: IC50 [1] | IC50 [2]
active: viability, T/C [25] 0.11% | viability, T/C [26] 0.13% | viability, T/C [27] 0.13% | viability, T/C [28] 0.11% | viability, T/C [29] 0.22% | viability, T/C [30] 1.37% | viability, T/C [31] 0.13% | viability, T/C [32] 0.14% | viability, T/C [33] 1.21% | viability, T/C [34] 1.06% | viability, T/C [35] 2.69% | viability, T/C [36] 1.48% | viability, T/C [37] 0.14% | viability, T/C [38] 2.05% | viability, T/C [39] 1.47% | viability, T/C [40] 0.25% | viability, T/C [41] 1.52% | viability, T/C [42] 2.52%
inactive: viability, T/C [7] 112% | viability, T/C [8] 131% | viability, T/C [9] 123% | viability, T/C [10] 122% | viability, T/C [11] 112% | viability, T/C [12] 85.4% | viability, T/C [13] 87.8% | viability, T/C [14] 87.7% | viability, T/C [15] 85.6% | viability, T/C [16] 91.5% | viability, T/C [17] 90.2% | viability, T/C [18] 76.1% | viability, T/C [19] 35.9% | viability, T/C [20] 33.1% | viability, T/C [21] 30.8% | viability, T/C [22] 25.4% | viability, T/C [23] 24.9% | viability, T/C [24] 24.7%

Cn1ncnc1[C@H]1c2n[nH]c(=O)c3cc(F)cc(c23)N[C@@H]1c1ccc(F)cc1
> 100 nM: IC50 (curve of compound)
inactive: viability, T/C (compound 0.000316 µM) 94.9% and 97.8% | viability, T/C (compound 0.001 µM) 80.7% and 87.4% | viability, T/C (compound 0.00316 µM) 104% and 100% | viability, T/C (compound 0.01 µM) 124% and 103% | viability, T/C (compound 0.0316 µM) 104% and 98.2% | viability, T/C (compound 0.1 µM) 75.3% and 72.6%

Nc1ccn(C2OC(CO)C(O)C2(F)F)c(=O)n1 (configuration not stated)
< 31.6 nM: IC50 (curve of compound)
inactive: viability, T/C (compound 0.0316 µM) 15.9% and 15.4% | viability, T/C (compound 0.1 µM) 17.1% and 18.3% | viability, T/C (compound 0.316 µM) 15.5% and 15.6% | viability, T/C (compound 1 µM) 15.6% and 16.5% | viability, T/C (compound 3.16 µM) 15.1% and 13.7% | viability, T/C (compound 10 µM) 13.5% and 14.2%

CCCS(=O)(=O)Nc1ccc(F)c(C(=O)c2c[nH]c3ncc(-c4ccc(Cl)cc4)cc23)c1F + CNC(=O)c1ccc(Nc2nc(OC3CCCC3)c3c(-c4ccc5nc(C)oc5c4)c[nH]c3n2)c(OC)c1
> 10000 nM: IC50 [1] | IC50 [2]
inactive: viability, T/C [7] 96.5% | viability, T/C [8] 93.9% | viability, T/C [9] 109% | viability, T/C [10] 103% | viability, T/C [11] 90.9% | viability, T/C [12] 74.4% | viability, T/C [13] 110% | viability, T/C [14] 103% | viability, T/C [15] 109% | viability, T/C [16] 113% | viability, T/C [17] 85.2% | viability, T/C [18] 67.6% | viability, T/C [19] 70.8% | viability, T/C [20] 73.4% | viability, T/C [21] 57.9% | viability, T/C [22] 46.5% | viability, T/C [23] 49.1% | viability, T/C [24] 40.2% | viability, T/C [25] 40.2% | viability, T/C [26] 32.9% | viability, T/C [27] 32.8% | viability, T/C [28] 35.4% | viability, T/C [29] 31.8% | viability, T/C [30] 24.3% | viability, T/C [31] 32% | viability, T/C [32] 31.3% | viability, T/C [33] 30.3% | viability, T/C [34] 30.2% | viability, T/C [35] 27.7% | viability, T/C [36] 24% | viability, T/C [37] 30.3% | viability, T/C [38] 31.7% | viability, T/C [39] 27.4% | viability, T/C [40] 29.6% | viability, T/C [41] 26.7% | viability, T/C [42] 23.1%
650 nM: IC50 [3]
< 31.6 nM: IC50 [4] | IC50 [5] | IC50 [6]

CC1(C)CCC(CN2CCN(c3ccc(C(=O)NS(=O)(=O)c4ccc(NCC5CCOCC5)c([N+](=O)[O-])c4)c(Oc4cnc5[nH]ccc5c4)c3)CC2)=C(c2ccc(Cl)cc2)C1 + CN1CCN(c2cc(C(=O)Nc3cc4cc(-c5cnn(C)c5)ccc4cn3)ccn2)CC1
active: viability, T/C [18] 7.76% | viability, T/C [24] 1.44% | viability, T/C [25] 0.16% | viability, T/C [26] 0.69% | viability, T/C [27] 0.19% | viability, T/C [28] 0.86% | viability, T/C [29] 1.06% | viability, T/C [30] 0.1% | viability, T/C [31] 0.36% | viability, T/C [32] 0.14% | viability, T/C [33] 0.14% | viability, T/C [34] 0.11% | viability, T/C [35] 2.58% | viability, T/C [36] 1.27% | viability, T/C [37] 0.15% | viability, T/C [38] 0.14% | viability, T/C [39] 1.91% | viability, T/C [40] 0.13% | viability, T/C [41] 0.16% | viability, T/C [42] 2.48%
5420 nM: IC50 [2]
inactive: viability, T/C [7] 109% | viability, T/C [8] 109% | viability, T/C [9] 97% | viability, T/C [10] 105% | viability, T/C [11] 112% | viability, T/C [12] 18.2% | viability, T/C [13] 97.1% | viability, T/C [14] 90.4% | viability, T/C [15] 79.8% | viability, T/C [16] 97.7% | viability, T/C [17] 87.1% | viability, T/C [19] 40% | viability, T/C [20] 38% | viability, T/C [21] 39.8% | viability, T/C [22] 32.5% | viability, T/C [23] 29.9%
< 31.6 nM: IC50 [3] | IC50 [4] | IC50 [5] | IC50 [6]
6610 nM: IC50 [1]

Nc1ccccc1NC(=O)c1ccc(CNC(=O)OCc2cccnc2)cc1 + CNC(=O)c1ccc(Nc2nc(OC3CCCC3)c3c(-c4ccc5nc(C)oc5c4)c[nH]c3n2)c(OC)c1
> 10000 nM: IC50 [1]
inactive: viability, T/C [7] 106% | viability, T/C [8] 99.7% | viability, T/C [9] 93.3% | viability, T/C [10] 86.6% | viability, T/C [11] 65.1% | viability, T/C [12] 52.1% | viability, T/C [13] 106% | viability, T/C [14] 93.8% | viability, T/C [15] 97.7% | viability, T/C [16] 77.4% | viability, T/C [17] 58.4% | viability, T/C [18] 44.4% | viability, T/C [19] 59.1% | viability, T/C [20] 50% | viability, T/C [21] 57.9% | viability, T/C [22] 51.9% | viability, T/C [23] 49.3% | viability, T/C [24] 34.4% | viability, T/C [25] 37.6% | viability, T/C [26] 37% | viability, T/C [27] 31.9% | viability, T/C [28] 34.4% | viability, T/C [29] 31.9% | viability, T/C [30] 8.75% | viability, T/C [31] 29% | viability, T/C [32] 30.7% | viability, T/C [33] 27.9% | viability, T/C [34] 31.5% | viability, T/C [35] 24.8% | viability, T/C [36] 6.59% | viability, T/C [37] 28.8% | viability, T/C [38] 24.2% | viability, T/C [39] 24.8% | viability, T/C [40] 30.1% | viability, T/C [41] 17.2% | viability, T/C [42] 5.11%
2290 nM: IC50 [3]
< 31.6 nM: IC50 [4] | IC50 [5] | IC50 [6]
6250 nM: IC50 [2]

From PubChem BioAssay AID2060606 (Molecular Pharmacology Branch, DTP, NCI, 2025)
